These compounds were tested against T1, Tyrosine-protein phosphatase non-receptor type 1 (Homo sapiens, UniProt P18031).
T1 sequence (P18031 whole entry): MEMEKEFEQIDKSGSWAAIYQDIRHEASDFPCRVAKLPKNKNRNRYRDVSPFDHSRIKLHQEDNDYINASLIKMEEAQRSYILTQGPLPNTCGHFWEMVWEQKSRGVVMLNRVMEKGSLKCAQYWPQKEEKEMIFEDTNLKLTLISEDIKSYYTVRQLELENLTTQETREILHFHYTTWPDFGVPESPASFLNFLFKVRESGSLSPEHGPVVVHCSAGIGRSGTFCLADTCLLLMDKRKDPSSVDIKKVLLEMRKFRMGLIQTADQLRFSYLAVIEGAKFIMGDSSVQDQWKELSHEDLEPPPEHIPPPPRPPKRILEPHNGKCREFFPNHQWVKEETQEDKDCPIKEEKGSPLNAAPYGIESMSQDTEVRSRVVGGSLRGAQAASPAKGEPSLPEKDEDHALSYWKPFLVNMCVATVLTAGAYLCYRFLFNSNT
Description: Inhibition of PTP1B (unknown origin)

`O=C(O)c1ccc(CN2C(=O)S/C(=C\c3ccc(OCc4ccccc4)cc3)C2=O)cc1` showed an IC50 of 1300 nM.

Molecular target: T1, Tyrosine-protein phosphatase non-receptor type 1
Remark: another data set of the same source
Description: Inhibition of C-terminal PTP1B (unknown origin)

Work on `COC(=O)CC[C@@H](C)[C@H]1CC[C@H]2[C@@H]3[C@H](O)C[C@H]4C[C@H](NCCCCNCc5ccccn5)CC[C@]4(C)[C@H]3CC[C@]12C` yielded an IC50 of 100 nM.

Molecular target: T1, Tyrosine-protein phosphatase non-receptor type 1
Remark: another data set of the same source
Description: Inhibition of human recombinant PTP1B incubated for 15 mins by fluorometric assay

`CCc1ccc(CCOc2ccc(CC3SC(=O)NC3=O)cc2)nc1` (stereo not given) [PIOGLITAZONE] and `CCN1C(=O)C(C)S/C1=N\c1ccc(S(=O)(=O)Nc2ncccn2)cc1` (stereo not given) are within 1.5-fold of each other in IC50: 650 nM for the first, 710 nM for the second.

First: N=C1SCC(=O)N1c1ccc(S(=O)(=O)Nc2ncccn2)cc1
Second: CC/N=C1\SCC(=O)N1c1ccc(S(=O)(=O)Nc2ncccn2)cc1
The IC50 of the first is 1.9-fold lower: 8970 nM for the first, 16600 nM for the second.

First: CCN1C(=O)CS/C1=N\c1ccc(S(=O)(=O)Nc2ncccn2)cc1
Second: O=C1CS/C(=N\c2ccccc2)N1c1ccc(S(=O)(=O)Nc2ncccn2)cc1
The IC50 of the first is 23-fold lower: 620 nM for the first, 14000 nM for the second.

Going from `O=C(CN1CCN(c2ccccc2)CC1)Nc1ccc(S(=O)(=O)Nc2ncccn2)cc1` to `CN1CCN(CC(=O)Nc2ccc(S(=O)(=O)Nc3ncccn3)cc2)CC1`, the IC50 falls from 3670 nM to 570 nM (6.4-fold).

`CC(=O)C1=CC(=O)N(c2ccc(S(=O)(=O)Nc3ncccn3)cc2)C1=O` and `N#CC1=CC(=O)N(c2ccc(S(=O)(=O)Nc3ncccn3)cc2)C1=O` are within 1.5-fold of each other in IC50: 830 nM for the first, 720 nM for the second.

Going from `O=S(=O)(Nc1ncccn1)c1ccc(NCc2nc3ccccc3[nH]2)cc1` to `CC1S/C(=N\c2ccc(S(=O)(=O)Nc3ncccn3)cc2)N(c2ccccc2)C1=O` (stereo not given), the IC50 rises from 680 nM to 1890 nM (2.8-fold).

`CC1O/C(=N\c2ccc(S(=O)(=O)Nc3ncccn3)cc2)N(c2ccccc2)C1=O` (stereo not given) showed an IC50 of 1950 nM.

— ChEMBL document CHEMBL6177919, “Development, biological evaluation, and molecular modelling of some benzene-sulfonamide derivatives as protein tyrosine phosphatase-1B inhibitors for managing diabetes mellitus and associated metabolic disorders” (RSC Med Chem, 2025)
